From ChEMBL document CHEMBL3085639, “Novel camphane-based anti-tuberculosis agents with nanomolar activity” (2013) come the findings set out here.

≈ marks a conversion by molar mass, not a printed value.

This test concerns Mycobacterium tuberculosis. The test can be described thus: Antimycobacterial activity against rifampin/isoniazid-resistant Mycobacterium tuberculosis 43 assessed as growth inhibition after 45 days by Canetti proportional method. The test is classed as functional.
One may read the MIC as the lowest concentration that inhibits growth of the organism. As for `CCNC(=O)N[C@@H]1[C@H]2CC[C@@](C)([C@@H]1O)C2(C)C`, the MIC was more than 20.8 µM.
In the case of `CC1(C)[C@@H]2CC[C@@]1(C)[C@H](O)[C@@H]2NC(=O)/C=C/c1ccccc1` it was 6.68 µM (≈ 2 µg/mL).
With `CC1(C)[C@@H]2CC[C@@]1(C)[C@H](O)[C@@H]2NC(=O)c1ccco1`, the MIC came to 7.59 µM (≈ 2 µg/mL).
In the case of `CC1(C)[C@@H]2CC[C@@]1(C)[C@H](O)[C@@H]2NC(=O)CCc1ccccc1`, the minimal inhibitory concentration (MIC) amounted to 6.63 µM (≈ 2 µg/mL).
`CC1(C)[C@@H]2CC[C@@]1(C)[C@H](O)[C@@H]2NC(=O)c1cccnc1`: the MIC is 18.2 µM (≈ 5 µg/mL).
In the case of `CC(=O)Oc1ccccc1C(=O)N[C@@H]1[C@H]2CC[C@@](C)([C@@H]1O)C2(C)C`, the minimum inhibitory concentration (MIC) was more than 15.1 µM.
